In the NIST ThermoML archive (doi:10.1021/je100028s):
Numbers after ± are expanded uncertainties.

Conditions: Liquid; for mass density: 293.1 K, 101.33 kPa, Pycnometric method; for vapor or sublimation pressure: Closed cell (Static) method

SMILES | mass density | vapor or sublimation pressure (414 K) | vapor or sublimation pressure (423.4 K) | vapor or sublimation pressure (433.7 K)
C1CCCCC1 [cyclohexane] | 778.2 ± 0.7 kg/m3 | 457.67 ± 21 kPa | 555.25 ± 21 kPa | 677.81 ± 21 kPa
OC1CCCCC1 [cyclohexanol] | 941.4 ± 0.9 kg/m3 |  |  | 
O=C1CCCCC1 [cyclohexanone] | 947.6 ± 0.9 kg/m3 |  |  | 
